Read-outs that look alike come from different tables or passages of the source.
Key:
[1] = AZILECT; cited from earlier work
[2] = Procedure: As used herein, a “glass transition temperature (Tg)” of a solid is the temperature where the solid goes from a rigid state to a flexible state. At Tg, a polymer undergoes a phase transition from a hard, glass-like state to a flexible, rubber-like state. The Tg temperature values listed herein were determined based upon half-height of the step change or “S” shape curve seen in DSC data.
Dispersions were prepared using several techniques including rotary evaporation from solution, cryogrinding dry components and lyophilization. Samples were analyzed by modulated Differential Scanning calorimetry (DSC) to determine glass transition temperatures (Tg). A slight excess of citric acid was used in most dispersions i.e. 0.7:1 mol of rasagiline: citric acid.
In the following experiment, rasagiline base was mixed with citric acid (1:1 mol:mol) and then methanol was added to the mixture. After stirring and complete dissolution of solids, the solution was evaporated under vacuum in rotary evaporator at bath temperature 60° C.

[3] = Modulated DSC (MDSC), glass transition temperature (Tg); format: physicochemical; conditions: Table 1

SMILES | absolute bioavailability [1] | Tg ([2]; by DSC) [°C] | Tg ([2]; cyclic DSC) | Tg [3]
C#CCN[C@@H]1CCc2ccccc21 [Rasagiline, R(+)-N-propargyl-1-aminoindan] | about 36% |  |  | 
C#CCN[C@@H]1CCc2ccccc21.O=C(O)CC(O)(CC(=O)O)C(=O)O [Sample 1, mono-rasagiline citrate] |  | ~17 | Tg = 18 °C | Tg = 16 °C

Reference: patent US8691872B2 (Teva Pharmaceutical Industries Ltd., priority 2010, dated 2014)
